These are literature values, as cited in US20220305055A1, “PHARMACEUTICAL CO[…]” (Zincum, Inc., priority 2016, published 2022).

The test system of the data set is diabetic rats. Particulars: zinc chloride administered.

In the case of `[Cl-].[Cl-].[Zn+2]` [zinc chloride], the hyperglycemia entry is on record as “hyperglycemia improved”.
